Patent publication US20250074911A1, “MACROCYCLIC BTK INHIBITORS” (Crossfire Oncology Holding B.V., priority 2021, published 2025)
pKd: −log10 of the molar value.

Experiments:
wt-BTK = wt-BTK (Homo sapiens (Human), UniProt Q06187); assay: Binding kinetics measurements (Surface Plasmon Resonance) on wt-BTK; details: for Tau (h) wt-BTK (Act): target residence time, SPR
How it was run: (§1)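 Constants come from single-cycle kinetics: five rising compound injections (3.16-316 nM) at 30 μl/min and 22° C over streptavidin-captured BTK (wild type or mutant), running buffer containing 1% DMSO. Double referencing applied; induced-fit binders fitted to a two-state model; duplicates geometrically averaged; residence time derived.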

[1] = test system: wt-BTK, BTK C481S, BTK T474I and BTK C481S/T474I expressing 293 cells; assay: Cell based washout, pBTK (Tyr223) Western blot; set-up: species or system human; details: 1000 nM compound 2 hours, washed twice, harvested 0-24 hours
Description: In vitro cellular (mutant) BTK inhibition, and inhibitor wash-out Generation of human wt-BTK, BTK C481S, BTK T474I, and BTK C481S/T474I expressing GripTite 293 MSR cells.
GripTite 293 MSR cells (Thermo Fisher, cat. no. R79507), here after referred to as 293 cells, were cultured in DMEM/F-12, GIutaMAX™ supplement medium (Thermo Fisher cat. no. 10565018) supplemented with 1% Penicilline/Streptomycine (Thermo Fisher cat. no. 15140122) 10% fetal bovine serum (Biowest, cat. no. Si181 0-500), 1× MEM Non-Essential Amino Acids (Thermo Fisher cat. no. 11140050) and 50 μg/ml Geneticin (Thermo Fisher cat. no. 10131035). Cells were transfected, with pEF6/V5-HisB (Thermo Fisher cat. no. V96120) expression vectors containing either full-length wildtype-BTK (canonical sequence NM_000061), BTK C481 S, BTK T474I or BTK C481 S/T474I (BaseClear) using Lipofectamine™ 3000 (Invitrogen). Because the stop codon at the end of the coding sequence of BTK has been conserved, the His-tag present in the expression vector is not being used. Immediately after transfection, cells were cultured in medium without Geneticin, and after 24 hours 50 μg/ml geneticin was added. 48 hours after transfection, medium was removed and replaced by medium containing both geneticin (50 μg/ml) and blasticidin (10 μg/ml) S HCl (Thermo Fisher, cat. no. A1113903). The resulting transfectants were cultured under blasticidin selection pressure for 18-35 passages to obtain stable wild-type BTK (wt-BTK), BTK C481S, BTK T474I, and BTK C481 S/T474I expressing cell pools. Stability of the (mutant) BTK expression in the 293 cell pools was confirmed by poly-acrylamide gel electrophoresis followed by Western blotting (FIG. 1A). […] For both experiments 10 μg of protein was separated on 4-12% Bis-Tris polyacrylamide gels.
Wild-type BTK, BTK C481S, BTK T474I or BTK C481 S/T474I expressing 293 cells were lysed in lysis buffer supplemented with protease inhibitors (Merck, cat. no. P8340) and phosphatase inhibitors (Thermo Fisher, cat. no. 78426). The protein concentration was determined with a Pierce BCA protein assay kit (Thermo Fisher, cat. no. 23227). Lysates were diluted to a concentration of 1 μg/μl in NuPage® LDS Sample Buffer (Thermo Fisher, cat. no. NP0008) with 167 mM DTT (Acros Organics, cat. no. 10686841) and denatured for 5 minutes at 95° C. The samples (10 μg protein) were, together with a pre stained protein ladder (Thermo Fisher, cat. no. 26616), separated on 4-12% Bis-Tris polyacrylamide gels (Thermo Fisher, cat. no. NP0324BOX). Separated protein was subsequently transferred, in methanol free transfer buffer (Thermo Fisher, cat. no. 35045), to a nitrocellulose membrane (Thermo Fisher, cat. no. 88018). Blots were first immunologically stained with phospho-BTK (Tyr223) rabbit mAb (Cell Signaling, cat. no. 5082S), and beta-actin rabbit mAb (Cell Signaling, cat. no. 4967S), followed by peroxidase conjugated goat anti-rabbit IgG (Cell Signaling, cat. no. 7074S). Afterwards, antibodies were removed using Western-blot stripping buffer (Thermo Fisher cat. no. 46428) and staining was repeated with a (total-)BTK mouse mAb (Abnova, cat. no. MAB0798), followed by peroxidase conjugated horse anti-mouse IgG (Cell Signaling, cat. no. 7076S). For all blots the colour development was performed with ECL horseradish peroxidase substrate (BioRad, cat. no. 170-5060).
Wild-type BTK, BTK C481S, BTK T474I, and BTK C481 S/T474I expressing 293 cells were growing exponentially when seeded in culture medium, without blasticidin, at a density of 2,000,000 cells/4 ml/well, in 25 cm^2 cell culture flasks (Greiner Bio-one, cat. no. 690175). Flasks were placed in a 37° C. C02-incubator for 16-24 hours after which 1 ml culture medium containing 5000 nM of the compound of Example 46 or Example 201, or Example 184, or Example 204, or Example 45 or (+/−) Loxo-305, or 0.05% DMSO (no compound) was added. 2 hours after addition of the inhibitors (0h) cells are either collected or washed twice with 5 ml culture medium. […]

BTK T474S = BTK T474S (Homo sapiens (Human), UniProt Q06187, T474S); assay: Binding kinetics measurements (Surface Plasmon Resonance) on BTK T474S; details: for residence time: read-out: Tau (h) BTK T474S (Act), target residence time
How it was run: as §1

BTK T474I = BTK T474I (Homo sapiens (Human), UniProt Q06187, T474I); assay: Binding kinetics measurements (Surface Plasmon Resonance) on BTK T474I; details: for Tau (h) BTK T474I (Act): target residence time, SPR
How it was run: as §1

BTK T316A = BTK T316A (Homo sapiens (Human), UniProt Q06187, T316A); assay: Binding kinetics measurements (Surface Plasmon Resonance) on BTK T316A; details: for Tau (h) BTK T316A (Act): target residence time, SPR
How it was run: as §1

BTK C481S = BTK C481S (Homo sapiens (Human), UniProt Q06187, C481S); assay: Binding kinetics measurements (Surface Plasmon Resonance) on BTK C481S; details: for Tau (h) BTK C418S (Act): target residence time for BTK C481S, SPR
How it was run: as §1

[2] = binding affinity by Surface Plasmon Resonance (SPR)

wt-BTK, sequence (Q06187 whole entry): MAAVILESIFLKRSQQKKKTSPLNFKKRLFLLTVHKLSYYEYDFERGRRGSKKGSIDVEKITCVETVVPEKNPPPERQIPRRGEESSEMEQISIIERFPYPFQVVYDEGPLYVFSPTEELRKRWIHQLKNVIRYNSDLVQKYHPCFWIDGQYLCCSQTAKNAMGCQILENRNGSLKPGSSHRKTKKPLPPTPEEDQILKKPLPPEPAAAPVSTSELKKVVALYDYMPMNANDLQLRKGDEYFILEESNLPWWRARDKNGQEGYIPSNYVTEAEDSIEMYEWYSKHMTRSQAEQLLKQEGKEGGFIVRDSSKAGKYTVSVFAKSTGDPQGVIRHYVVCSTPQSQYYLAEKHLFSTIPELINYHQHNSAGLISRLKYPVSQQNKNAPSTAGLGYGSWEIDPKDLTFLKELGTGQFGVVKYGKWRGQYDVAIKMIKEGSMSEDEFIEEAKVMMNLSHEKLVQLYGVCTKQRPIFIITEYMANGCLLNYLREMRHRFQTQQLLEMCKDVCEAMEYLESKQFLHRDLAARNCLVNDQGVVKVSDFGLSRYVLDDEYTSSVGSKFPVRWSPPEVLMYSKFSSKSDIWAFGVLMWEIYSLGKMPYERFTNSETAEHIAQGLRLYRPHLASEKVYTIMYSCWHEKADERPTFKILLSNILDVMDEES
BTK T474I, sequence (Q06187 whole entry T474I): as the sequence (Q06187 whole entry) above, with T474I counted along it
BTK C481S, sequence (Q06187 whole entry C481S): as the sequence (Q06187 whole entry) above, with C481S counted along it
BTK T474S, sequence (Q06187 whole entry T474S): as the sequence (Q06187 whole entry) above, with T474S counted along it
BTK T316A, sequence (Q06187 whole entry T316A): as the sequence (Q06187 whole entry) above, with T316A counted along it

Nc1ncc2c3c1c(-c1ccc(C(=O)Nc4cc(C(F)(F)F)ccn4)cc1)nn3[C@@H]1CCC[C@H](C1)NC(=O)CCCCC/C=C/2 [Example 46]
pKd (wt-BTK; [2]): > 8.30 | Tau (h) wt-BTK (Act) (wt-BTK): 4.87 h | time for which level of phosphorylated BTK (pBTK (Tyr223)) is prohibited or reduced after wash-out ([1]; also cell lines expressing mutant BTK): at least 6 hours | pKd (BTK T474S; [2]): > 8.52 | residence time (BTK T474S): 4.8 h | pKd (BTK T474I; [2]): > 8.70 | Tau (h) BTK T474I (Act) (BTK T474I): 2.58 h | pKd (BTK T316A; [2]): > 8.30 | Tau (h) BTK T316A (Act) (BTK T316A): 3.23 h | pKd (BTK C481S; [2]): > 8.30 | Tau (h) BTK C418S (Act) (BTK C481S): 9.36 h

COc1ccc(F)cc1C(=O)NCc1ccc(-c2nn([C@@H](C)C(F)(F)F)c(N)c2C(N)=O)cc1 [pirtobrutinib, reference compound]
target residence time on wild-type-BTK (wt-BTK; result in words): short target residence times | Tau (h) wt-BTK (Act) (wt-BTK): 0.45 h | level of phosphorylated BTK (pBTK (Tyr223)) in wash-out experiments ([1]; result in words): does not prohibit or reduce the level of phosphorylated BTK | residence time (BTK T474S): 1.25 h | target residence time on BTK T474 mutants (T474S) (BTK T474S; result in words): short target residence times | target residence time on BTK T474 mutants (T474I) (BTK T474I; result in words): short target residence times | Tau (h) BTK T474I (Act) (BTK T474I): 0.03 h | target residence time on BTK T316 mutants (BTK T316A; result in words): short target residence times | Tau (h) BTK T316A (Act) (BTK T316A): 0.17 h | target residence time on BTK C481 mutants (BTK C481S; result in words): short target residence times | Tau (h) BTK C418S (Act) (BTK C481S): 0.91 h
